Assay results reported in PMC6222377, “Design, Synthesis, and Evaluation of Amphiphilic Cyclic and Linear Peptides Composed of Hydrophobic and Positively-Charged Amino Acids as Antibacterial Agents” (Molecules : A Journal of Synthetic Chemistry and Natural …, 2018).
In brackets after ≈: the same amount, converted by molar mass. Where a SMILES comes first, the peptide text is derived from it. [ ]: non-standard residue; d: D form. Trp(1-Me) = Cn1cc(C[C@H](N)C(=O)O)c2ccccc21

What was measured:
E. coli (ATCC 25922) = assay: microbe, parasite or virus in culture; format: cell-based, Escherichia coli
Description: (§1) To evaluate the antibacterial activity of all the synthesized peptides, the minimum inhibitory concentration (MIC) was determined using the micro broth dilution method (Table 1), as per the Clinical Laboratory Standards Institute (CLSI). The MIC is a quantitative measurement of the minimum concentration of a compound required to inhibit visible bacterial growth. MIC values for all 20 peptides were measured against E. coli (ATCC 25922) and MRSA (Los Angeles County clone (LAC)) (Table 1). These two bacterial strains represent Gram-negative and Gram-positive pathogens. MRSA is one of the most challenging Gram-positive bacteria that leads to a life-threatening infection, while E. coli is a Gram-negative bacteria that has the ability to use gene mutations and multidrug efflux pumps that can result in multidrug resistance.
(§2) Two bacterial strains, methicillin-resistant Staphylococcus aureus (LAC) and Escherichia coli (ATCC 25922) were used for the evaluation of the antibacterial activities of the peptides. […] MRSA and E. coli were inoculated into Mueller Hinton (MH) broth (5 mL) at 37 °C. After shaking in an orbital shaker (175 rpm) overnight, the cultured suspension was diluted using normal saline (5 mL). […] An amount of 40 μL of the McFarland solution was then added to 5980 μL of MH media to afford 1/150 dilution. […] Minimal inhibitory concentrations (MIC) values were obtained using the broth micro dilution assay. In brief, first, the peptides and controls (200 μL) were added to the first column of the 96 well plate. Second, 2-fold serial dilutions of the compound were accomplished by adding media (100 μL) to other wells. After the serial dilution, the bacterial solution (100 μL) was added to all the wells. Finally, the microtiter plates were incubated statically at 37 °C overnight. MIC values were obtained by observing the minimal concentration at which bacterial growth was not visible. All the determinations were carried out in triplicate.

[1] = system: MRSA (Los Angeles County clone (LAC)); assay: microbe, parasite or virus in culture; format: cell-based, methicillin-resistant Staphylococcus aureus; settings: for MIC MRSA (LAC): Los Angeles County clone (LAC); for reduction of antibacterial activity compared with [R4W4]: comparison of MIC values with lead compound [R4W4]
Description: as §1, §2

MRSA (ATCC 43300) = settings: cited from earlier work
Text: Synthesis of AMPs by modifying the structures of amino acids is relatively easy. Change in the structure of natural and synthetic AMPs can be used to develop new active compounds with optimal activity and stability. Developing small-sized linear or cyclic peptides for AMP application is more accessible than the complex AMPs isolated from natural products containing disulfide bonds. The cyclic peptides are polypeptides chains containing a cyclic structure synthesized by linking the carboxylic acid and amino groups in the peptide.

Compound	MIC E. coli (ATCC 25922) (E. coli (ATCC 25922))	MIC MRSA (LAC) [1]	other results
C[C@@H](O)[C@H]1C(=O)N2C(C(=O)O)=C(S[C@@H]3CN[C@H](C(=O)N(C)C)C3)[C@H](C)[C@H]12 [Meropenem, reference compound]			MIC (E. coli (ATCC 25922); Escherichia coli, ATCC25922, broth microdilution, Mueller Hinton broth, 37 °C overnight, visible growth, triplicate): 0.25 µg/mL (≈ 0.652 µM)
N=C(N)NCCC[C@H](NC(=O)[C@H](CCCNC(=N)N)NC(=O)[C@H](CCCNC(=N)N)NC(=O)[C@@H](N)CCCNC(=N)N)C(=O)N[C@@H](Cc1c[nH]c2ccccc12)C(=O)N[C@@H](Cc1c[nH]c2ccccc12)C(=O)N[C@@H](Cc1c[nH]c2ccccc12)C(=O)N[C@@H](Cc1c[nH]c2ccccc12)C(=O)N[C@@H](Cc1c[nH]c2ccccc12)C(=O)O [R4W5 (18)5]	32 µg/mL (≈ 20.3 µM)	16 µg/mL (≈ 10.2 µM)	
CN[C@H](CC(C)C)C(=O)N[C@H]1C(=O)N[C@@H](CC(N)=O)C(=O)N[C@H]2C(=O)N[C@H]3C(=O)N[C@H](C(=O)N[C@H](C(=O)O)c4cc(O)cc(O)c4-c4cc3ccc4O)[C@H](O)c3ccc(c(Cl)c3)Oc3cc2cc(c3O[C@@H]2O[C@H](CO)[C@@H](O)[C@H](O)[C@H]2O[C@H]2C[C@](C)(N)[C@H](O)[C@H](C)O2)Oc2ccc(cc2Cl)[C@H]1O [Vancomycin, reference compound]			MIC ([1]; Staphylococcus aureus, MRSA, read-out: MIC MRSA (LAC)): 1 µg/mL (≈ 0.69 µM)
C[C@@H]1NC(=O)[C@H](C)NC(=O)[C@H](C)NC(=O)[C@H](CCCNC(=N)N)NC(=O)[C@H](CCCNC(=N)N)NC(=O)[C@H](CCCNC(=N)N)NC(=O)[C@H](CCCNC(=N)N)NC(=O)[C@H](C)NC1=O [[A4R4] (10)] (cyclo(AAAARRRR))	>128 µg/mL	>128 µg/mL	
N=C(N)NCCC[C@H]1NC(=O)[C@H](Cc2c[nH]c3ccccc23)NC(=O)[C@H](Cc2c[nH]c3ccccc23)NC(=O)[C@H](Cc2c[nH]c3ccccc23)NC(=O)[C@H](Cc2c[nH]c3ccccc23)NC(=O)[C@@H](CCCNC(=N)N)NC(=O)[C@@H](CCCNC(=N)N)NC(=O)[C@@H](CCCNC(=N)N)NC1=O [[DR4W4] (14)] (cyclo([dR][dR][dR][dR]WWWW))	16 µg/mL (≈ 11.7 µM)	8 µg/mL (≈ 5.84 µM)	reduction of antibacterial activity compared with [R4W4] [1]: two-fold
O=C(O)CC[C@@H]1NC(=O)[C@H](CCC(=O)O)NC(=O)[C@H](CCC(=O)O)NC(=O)[C@H](Cc2c[nH]c3ccccc23)NC(=O)[C@H](Cc2c[nH]c3ccccc23)NC(=O)[C@H](Cc2c[nH]c3ccccc23)NC(=O)[C@H](Cc2c[nH]c3ccccc23)NC(=O)[C@H](CCC(=O)O)NC1=O [[E4W4] (16)] (cyclo(EEEEWWWW))	>128 µg/mL	>128 µg/mL	antibacterial activity (in words) ([1]; text summary of MIC results): abolished the activity completely
N=C(N)NCCC[C@@H]1NC(=O)[C@H](CCCNC(=N)N)NC(=O)[C@H](CCCNC(=N)N)NC(=O)[C@H](Cc2ccccc2)NC(=O)[C@H](Cc2ccccc2)NC(=O)[C@H](Cc2ccccc2)NC(=O)[C@H](Cc2ccccc2)NC(=O)[C@H](CCCNC(=N)N)NC1=O [[F4R4] (9)] (cyclo(RRRRFFFF))	>128 µg/mL	>128 µg/mL	
CC[C@H](C)[C@@H]1NC(=O)[C@H](CCCNC(=N)N)NC(=O)[C@H](CCCNC(=N)N)NC(=O)[C@H](CCCNC(=N)N)NC(=O)[C@H](CCCNC(=N)N)NC(=O)[C@H]([C@@H](C)CC)NC(=O)[C@H]([C@@H](C)CC)NC(=O)[C@H]([C@@H](C)CC)NC1=O [[I4R4] (11)] (cyclo(IIIIRRRR))	>128 µg/mL	>128 µg/mL	
NCCCC[C@@H]1NC(=O)[C@H](CCCCN)NC(=O)[C@H](CCCCN)NC(=O)[C@H](Cc2c[nH]c3ccccc23)NC(=O)[C@H](Cc2c[nH]c3ccccc23)NC(=O)[C@H](Cc2c[nH]c3ccccc23)NC(=O)[C@H](Cc2c[nH]c3ccccc23)NC(=O)[C@H](CCCCN)NC1=O [[K4W4] (15)] (cyclo(KKKKWWWW))	16 µg/mL (≈ 12.7 µM)	8 µg/mL (≈ 6.36 µM)	reduction of antibacterial activity compared with [R4W4] [1]: two-fold
CC(C)C[C@@H]1NC(=O)[C@H](CCCNC(=N)N)NC(=O)[C@H](CCCNC(=N)N)NC(=O)[C@H](CCCNC(=N)N)NC(=O)[C@H](CCCNC(=N)N)NC(=O)[C@H](CC(C)C)NC(=O)[C@H](CC(C)C)NC(=O)[C@H](CC(C)C)NC1=O [[L4R4] (12)] (cyclo(LLLLRRRR))	>128 µg/mL	>128 µg/mL	
N=C(N)NCCC[C@@H]1NC(=O)[C@H](CCCNC(=N)N)NC(=O)[C@H](CCCNC(=N)N)NC(=O)[C@H](Cc2c[nH]c3ccccc23)NC(=O)[C@H](Cc2c[nH]c3ccccc23)NC(=O)[C@H](Cc2c[nH]c3ccccc23)NC(=O)[C@H](Cc2c[nH]c3ccccc23)NC(=O)[C@H](CCCNC(=N)N)NC1=O [[R4W4] (7)] (cyclo(RRRRWWWW))	16 µg/mL (≈ 11.7 µM)	4 µg/mL (≈ 2.92 µM)	MIC against MRSA as printed in the cytotoxicity section ([1]; text of section 2.3): 4 µM (≈ 5.48 µg/mL); MIC against MRSA (ATCC 43300) (MRSA (ATCC 43300)): 2.67 µg/mL (≈ 1.95 µM)
N=C(N)NCCC[C@@H]1NC(=O)[C@H](CCCNC(=N)N)NC(=O)[C@H](CCCNC(=N)N)NC(=O)[C@H](CCCNC(=N)N)NC(=O)[C@H](Cc2c[nH]c3ccccc23)NC(=O)[C@H](Cc2c[nH]c3ccccc23)NC(=O)[C@H](Cc2c[nH]c3ccccc23)NC(=O)[C@H](Cc2c[nH]c3ccccc23)NC(=O)[C@H](Cc2c[nH]c3ccccc23)NC(=O)[C@H](CCCNC(=N)N)NC(=O)[C@H](CCCNC(=N)N)NC(=O)[C@H](CCCNC(=N)N)NC1=O [[R7W5] (17)] (cyclo(RRRRRRRWWWWW))	64 µg/mL (≈ 31.6 µM)	32 µg/mL (≈ 15.8 µM)	
N=C(N)NCCC[C@@H]1NC(=O)[C@H](CCCNC(=N)N)NC(=O)[C@H](CCCNC(=N)N)NC(=O)[C@H](CCCNC(=N)N)NC(=O)[C@H](Cc2c[nH]c3ccccc23)NC(=O)[C@H](Cc2c[nH]c3ccccc23)NC(=O)[C@H](Cc2c[nH]c3ccccc23)NC(=O)[C@H](Cc2c[nH]c3ccccc23)NC(=O)[C@H](Cc2c[nH]c3ccccc23)NC(=O)[C@H](Cc2c[nH]c3ccccc23)NC(=O)[C@H](CCCNC(=N)N)NC(=O)[C@H](CCCNC(=N)N)NC(=O)[C@H](CCCNC(=N)N)NC1=O [[R7W6] (19)] (cyclo(RRRRRRRWWWWWW))	64 µg/mL (≈ 29 µM)	16 µg/mL (≈ 7.24 µM)	
N=C(N)NCCC[C@@H]1NC(=O)[C@H](CCCNC(=N)N)NC(=O)[C@H](CCCNC(=N)N)NC(=O)[C@H](CCCNC(=N)N)NC(=O)[C@H](Cc2c[nH]c3ccccc23)NC(=O)[C@H](Cc2c[nH]c3ccccc23)NC(=O)[C@H](Cc2c[nH]c3ccccc23)NC(=O)[C@H](Cc2c[nH]c3ccccc23)NC(=O)[C@H](Cc2c[nH]c3ccccc23)NC(=O)[C@H](Cc2c[nH]c3ccccc23)NC(=O)[C@H](Cc2c[nH]c3ccccc23)NC(=O)[C@H](CCCNC(=N)N)NC(=O)[C@H](CCCNC(=N)N)NC(=O)[C@H](CCCNC(=N)N)NC1=O [[R7W7] (20)] (cyclo(RRRRRRRWWWWWWW))	32 µg/mL (≈ 13.4 µM)	8 µg/mL (≈ 3.34 µM)	
Cn1cc(C[C@@H]2NC(=O)[C@H](CCCNC(=N)N)NC(=O)[C@H](CCCNC(=N)N)NC(=O)[C@H](CCCNC(=N)N)NC(=O)[C@H](CCCNC(=N)N)NC(=O)[C@H](Cc3cn(C)c4ccccc34)NC(=O)[C@H](Cc3cn(C)c4ccccc34)NC(=O)[C@H](Cc3cn(C)c4ccccc34)NC2=O)c2ccccc21 [[W(Me)4R4] (13)] (cyclo([Trp(1-Me)][Trp(1-Me)][Trp(1-Me)][Trp(1-Me)]RRRR))	16 µg/mL (≈ 11.2 µM)	8 µg/mL (≈ 5.61 µM)	
N=C(N)NCCC[C@@H]1NC(=O)[C@H](CCCNC(=N)N)NC(=O)[C@H](CCCNC(=N)N)NC(=O)[C@H](Cc2ccc(O)cc2)NC(=O)[C@H](Cc2ccc(O)cc2)NC(=O)[C@H](Cc2ccc(O)cc2)NC(=O)[C@H](Cc2ccc(O)cc2)NC(=O)[C@H](CCCNC(=N)N)NC1=O [[Y4R4] (8)] (cyclo(YYYYRRRR))	>128 µg/mL	>128 µg/mL	
H-AAAARRRR-OH [A4R4 (2)]	>128 µg/mL	>128 µg/mL	
H-FFFFRRRR-OH [F4R4 (3)]	>128 µg/mL	>128 µg/mL	
H-IIIIRRRR-OH [I4R4 (5)]	>128 µg/mL	>128 µg/mL	
H-LLLLRRRR-OH [L4R4 (4)]	>128 µg/mL	>128 µg/mL	
H-RRRRWWWW-OH [R4W4 (1)]	64 µg/mL	32 µg/mL	
H-YYYYRRRR-OH [Y4R4 (6)]	>128 µg/mL	>128 µg/mL	
